The test system of one assay is heart muscle cells. The following applies: by activating Akt; cited from earlier work.
Assay [1] concerns heart muscle cells of rat newborns. The assay can be described thus: Inhibition of serum-removal-induced apoptosis of heart muscle cells, conventional MTT reduction method (no serum re-addition). The format is cell-based. The following applies: 1000 U/ml hLIF, 4 days serum-free, MTT as coloration substrate. An excerpt:
(§1) Using the heart muscle cells of rat newborns obtained by the present method of preparing heart muscle cells as described in Example 1, their apoptosis was induced by removing serum from the culture, and the inhibitory action of recombinant human leukemia inhibitory factor (hLIF, produced by Peprotech) on the apoptosis was detected by the conventional method with MTT as the coloration substrate and by the present method of detecting apoptosis with WST-8 or MTT as the coloration substrate, and the sensitivity of the two methods was compared.
First, the muscle cells obtained in the method of preparing heart muscle cells according to the invention were suspended at a density of 3×10^5 cells/ml in Medium 199 containing 10% fetal calf serum, put onto a 96-wells plate in a volume of 0.1 ml/well, and then cultured for 1 day in a CO2 incubator set at 5% CO2, 37° C. […] In the conventional method, the number of viable cells in the culture was measured directly with MTT as the coloration substrate. In the method of the invention, on the other hand, fetal calf serum was added thereto at a concentration of 10%, and the cells were further cultured for about 17 hours in a CO2 incubator set at 5% CO2, 37° C., and the number of viable cells was determined by using WST-8 or MTT as the coloration substrate.

Assay [2] shares this test system. The assay is described as follows: Inhibition of serum-removal-induced apoptosis of heart muscle cells, present detection method (serum re-added, about 17 h) with MTT. The format is cell-based. The following applies: 1000 U/ml hLIF, 4 days serum-free, then 10% serum about 17 h, MTT as coloration substrate. On the procedure:
(§2) The heart muscle cells obtained by the method of the invention are adjusted to a cell density of 3×10^4 cells/well (96-wells plate) and cultured in serum-free medium such as Medium 199 in a CO2 incubator set at 5% CO2, 37° C. for 4 days, thus inducing apoptosis to reduce the survival rate of the heart muscle cells to 50% or less.
(§3) Serum such as FCS is added at a final concentration of 10% to the culture, which is then cultured for about 17 hours and measured for its dehydrogenase activity (reduction activity) with MTT or WST-8 as the coloration substrate, to determine the number of viable cells.
Using the heart muscle cells of rat newborns obtained by the present method of preparing heart muscle cells as described in Example 1, their apoptosis was induced by removing serum from the culture, and the inhibitory action of recombinant human leukemia inhibitory factor (hLIF, produced by Peprotech) on the apoptosis was detected by the conventional method with MTT as the coloration substrate and by the present method of detecting apoptosis with WST-8 or MTT as the coloration substrate, and the sensitivity of the two methods was compared. […]

Assay [3] has the same test system. The assay is described as follows: Inhibition of serum-removal-induced apoptosis of heart muscle cells, present detection method (serum re-added, about 17 h) with WST-8. The format is cell-based. The following applies: 1000 U/ml hLIF. On the procedure:
as §2, §3, §1
First, the muscle cells obtained in the method of preparing heart muscle cells according to the invention were suspended at a density of 3×10^5 cells/ml in Medium 199 containing 10% fetal calf serum, put onto a 96-wells plate in a volume of 0.1 ml/well, and then cultured for 1 day in a CO2 incubator set at 5% CO2, 37° C. The plate was stirred with a micromixer (Taiyo Kagaku Kogyo Co., Ltd.) and the medium was exchanged 3 times with serum-free Medium 199, followed by adding 0 to 1000 U/ml hLIF. The culture was incubated for additional 4 days to induce apoptosis. In the conventional method, the number of viable cells in the culture was measured directly with MTT as the coloration substrate. In the method of the invention, on the other hand, fetal calf serum was added thereto at a concentration of 10%, and the cells were further cultured for about 17 hours in a CO2 incubator set at 5% CO2, 37° C., and the number of viable cells was determined by using WST-8 or MTT as the coloration substrate. […]
First, the heart muscle cells obtained in the method described in Example 1 were suspended at a density of 3×10^5 cells/ml in Medium 199 containing 10% fetal bovine serum, and put in a volume of 0.1 ml/well onto each well of 2nd to 11th rows on each of three 96-wells plates. […] The cells were cultured for 4 days to induce apoptosis, and fetal calf serum was added at a concentration of 10%, and the cells were cultured for additional 17 hours in a CO2 incubator set at 5% CO2, 37° C., and then the number of viable cells was counted with WST-8 as the coloration substrate.

Consider “hIGF-1: recombinant human IGF-1 (hIGF-1, produced by Peprotech)”, for which, in the assay on heart muscle cells, the “effect on apoptosis of heart muscle cells” value is recorded as “inhibit apoptosis of heart muscle cells”.
For the substance “hLIF: recombinant human leukemia inhibitory factor (hLIF, produced by Peprotech)”, the “increase in the average absorbance as compared with the control group” value in assay [1] is ≤ 0.03. The “increase in absorbance relative to control group” value in assay [2] is on record as ~0.1. In addition, the “increase in average absorbance relative to control group” value in assay [3] (4 days serum-free, then 10% serum about 17 h, WST-8 as coloration substrate) was ≥ 0.3. For the same substance, the “average absorbance (number of viable cells)” value in assay [3] (plate 1, WST-8, control 0.22±0.039) came to 0.54±0.055; in assay [3] (plate 2, WST-8, control 0.15±0.028), 0.45±0.035; in assay [3] (plate 3, WST-8, control 0.13±0.020), 0.43±0.059.

Values taken from US20080160553A1, “Method of preparing heart muscle cells and method of searching for remedy for heart diseases” (Takeda Pharmaceutical Company Limited, priority 2000, published 2008).
